Where a name gives a salt, the structure may show the parent alone. Read-outs that look alike come from different tables or passages of the source.
How the values were obtained:
[1] = test system: subjects undergoing elective outpatient laparoscopic cholecystectomy; test: Example 16 trial: pain intensity on movement after laparoscopic cholecystectomy; format: in vivo, human; settings: Part 2 (N = 148 per group)
Method: The trial included: 1) a randomized, parallel-group, double-blind, placebo-controlled study (Part 1) and a randomized, parallel-group, double-blind, bupivacaine HCl active-controlled study (Part 2).
Part 1: Pain intensity on movement measured at scheduled time points from 0 to 72 hours following test drug administration, adjusted for prior rescue medication use and analyzed by a mixed effect ANOVA model of repeated measures (MMRM).
Part 2: Pain intensity on movement measured at scheduled time points from 0 to 48 hours following test drug administration, adjusted for prior rescue medication use and analyzed by a mixed effect ANOVA model of repeated measures (MMRM).

[2] = test system: patients undergoing general surgical procedures; test: Example 17 trial: safety including Holter monitoring; format: in vivo, human; settings: Safety Population
Text: Patient safety was carefully monitored throughout the trial with traditional assessments of AEs, vital signs, routine laboratory testing, and Holter monitoring (i.e., continuous recording of electrocardiogram) for 3 days after dosing. Special attention was given to cardiovascular and neurological AE, as bupivacaine toxic effects are manifest in those two body systems. In addition, special assessments were done to monitor surgical wound condition and healing over the 30 days of the trial.

[3] = Example 17 trial: plasma total bupivacaine pharmacokinetics; format: in vivo; settings: human
Method: Plasma PK samples were analyzed for determination of total bupivacaine concentration only and none of the samples were analyzed for determination of free drug concentration.

## CCCCN1CCCCC1C(=O)Nc1c(C)cccc1C (stereo not drawn) [bupivacaine HCl, bupivacaine hydrochloride]
[1]
  Pain intensity on movement 0 to 48 hours, Mean: 5.87
[2]; Cohort 1
  At Least One Cardiovascular TEAE: 7 (39%)
  At Least One Neurological TEAE: 4 (22%)
  At Least One Non-Opioid TEAE: 17 (94%)
  At Least One Serious TEAE: 4 (22%)
  At Least One Serious and Related TEAE: 0
  At Least One Severe and Related TEAE: 0
  At Least One TEAE: 17 (94%)
  At Least One TEAE Leading to Study Discontinuation: 0
  At Least One Wound Infection REAE: 2 (11%)
  Deaths: 0
  TEAE Maximum Relationship to Study Drug: Not Related: 13 (72%)
  TEAE Maximum Relationship to Study Drug: Related: 4 (22%)
  TEAE Maximum Severity: Mild: 2 (11%)
  TEAE Maximum Severity: Moderate: 11 (61%)
  TEAE Maximum Severity: Severe: 4 (22%)
[2]; Cohort 2
  At Least One Cardiovascular TEAE: 2 (10%)
  At Least One Neurological TEAE: 10 (50%)
  At Least One Non-Opioid TEAE: 19 (95%)
  At Least One Serious TEAE: 1 (5%)
  At Least One Serious and Related TEAE: 0
  At Least One Severe and Related TEAE: 1 (5%)
  At Least One TEAE: 20 (100%)
  At Least One TEAE Leading to Study Discontinuation: 1 (5%)
  At Least One Wound Infection REAE: 1 (5%)
  Deaths: 0
  TEAE Maximum Relationship to Study Drug: Not Related: 10 (50%)
  TEAE Maximum Relationship to Study Drug: Related: 10 (50%)
  TEAE Maximum Severity: Mild: 2 (10%)
  TEAE Maximum Severity: Moderate: 13 (65%)
  TEAE Maximum Severity: Severe: 5 (25%)
[3]; Cohort 1
  Cmax: 0.251 µg/mL
[3]; Cohort 1, read-out: AUC(0-72), mean
  AUC(0-t): 8.46 µg·h/mL
[3]; Cohort 1, read-out: AUC(0-last), mean
  AUC(0-t): 7.78 µg·h/mL
[3]; Cohort 1, read-out: Tmax, median
  Tmax: 16 h
[3]; Cohort 2
  Cmax: 0.371 µg/mL
[3]; Cohort 2, read-out: AUC(0-72), mean
  AUC(0-t): 6.77 µg·h/mL
[3]; Cohort 2, read-out: AUC(0-last), mean
  AUC(0-t): 6.62 µg·h/mL
[3]; Cohort 2, read-out: Tmax, median
  Tmax: 1 h

Source: US11400019B2, “Sustained release drug delivery systems with reduced impurities and related methods” (DURECT CORPORATION, priority 2020, dated 2022)
